# Earlier results, collected in patent publication US7807616B2, “Geranonitrile substitute” (Henkel AG & Co. KGaA, priority 2004, dated 2010).
# Where two headings read alike, the source gives them in different places.
# Columns and labels:
# [1] = new findings (BASF, 2003); status 2004
# [2] = solution heated at 100° C. for two hours
SMILES,class under the EU classification criteria (CMR) [1],amount of the anhydrous salt that dissolves in 100 g of water (at 60°),amount of the anhydrous salt that dissolves in 100 g of water (at 100°),amount of the anhydrous salt that dissolves in 100 g of water (room temperature),diphosphate produced by hydrolysis [2] [%],orthophosphate produced by hydrolysis [2]
"CC(C)=CCCC(C)=CC#N [geranonitrile, 3,7-dimethyl-2,6-octadienenitrile]",category 3 mutagen (M:3),–,–,–,–,–
O=P([O-])([O-])OP(=O)([O-])OP(=O)([O-])[O-].[Na+].[Na+].[Na+].[Na+].[Na+] [pentasodium triphosphate],–,about 20 g,around 32 g,About 17 g,~15,about 8%
